Measurements published in paper PMC12613848, “First in human phase 1 study of DT2216, a selective BCL-xL degrader, in patients with relapsed/refractory solid malignancies” (Journal of Hematology & Oncology, 2025).

Columns and labels:
[1] = tested on: advanced solid tumors; assay: Efficacy in patients (RECIST v1.1, Kaplan-Meier survival); assay type: in vivo, human
Text: The primary objective of the escalation phase was to determine the recommended phase 2 dose (RP2D) for DT2216. The secondary objectives were to characterize the adverse event (AE) profile, determine the pharmacokinetic profile (PK)/pharmacodynamic profile (PD) and describe preliminary evidence of efficacy using objective response rate (ORR), disease control rate (DCR), and progression-free survival (PFS) based on Response Evaluation Criteria in Solid Tumors (RECIST) v1.1. Exploratory objectives were to characterize the baseline and on-treatment expression of BCL-XL and VHL on blood lymphocytes, as well as other circulating biomarkers. Exploratory objectives included characterizing the baseline and on-treatment changes in platelet count and correlating them with DT2216 drug levels.
Patients were allowed a maximum of two intra-patient dose escalations. Patients received DT2216 by intravenous infusion on days 1 and 4 weekly for at least 4 weeks, with each cycle consisting of a 28-day cycle for a maximum duration of 1 year until disease progression, unacceptable toxicity, or other withdrawal criteria, as listed in the protocol. The extent of disease was evaluated using imaging studies and disease-appropriate tumor markers every 8 weeks from day 1 of the first cycle. RP2D was established based on MTD as well as other relevant data, including clinical signals of activity, PK, and PD data.
Premedication prior to each infusion was at the discretion of the investigator or according to institutional guidelines. Patient assessment and follow-up procedures can be found in the schedule of assessments in this study. The clinical response was evaluated using RECIST v1.1 per protocol. Blood samples were collected for PK analysis before and after post-infusion at defined intervals, along with platelet counts. Exploratory biomarkers include (but are not limited to) the assessment of BCL-XL and VHL levels in peripheral white blood cells (WBC).
Descriptive statistics were used to display dose escalation data and results. Continuous variables, including baseline characteristics, will be summarized by reporting the number of observations, mean, standard deviation, median, minimum, and maximum values. Categorical/discrete variables will be summarized using frequency tables that show the number and percentage of subjects within a category. Time-to-event analysis was performed using the Kaplan–Meier method. The overall response rate (ORR) and its 2-sided 95% confidence interval (CI) were calculated using the Clopper-Pearson method.

[2] = tested on: MOLT-4 cells (T-ALL); assay: In vitro IC90, MOLT-4 cells; assay type: cell-based; settings: Homo sapiens
Description: Fig. 7 Mean Plasma concentration of DT2216 in 4 patients infused with DT2216 at 0.4 mg/kg over time against in vitro inhibitory concentration 90%(IC90) for various cell lines. SCLC – small cell lung cancer; OC- ovarian carcinoma; T-ALL – T cell acute lymphoblastic leukemia, CTCL – Cutaneous T cell lymphoma TEXT PRINTED IN THE PICTURE: DT2216: IC90 (≈ 1000 nM) for H146 cells (SCLC); IC90 (< 1000 nM) for OVCAR4 cells (OC); IC90 (≈ 500 nM) for MOLT-4 cells (T-ALL); IC90 (< 100 nM) for OVCAR4 cells (OC)* (*In combination with Carboplatin); IC90 (≈ 100 nM) for H146 cells (SCLC)** (**In combination with SN-38/irinotecan); IC90 (30 nM) for Myla cells (CTCL)

[3] = Cohort 1 (0.04 mg/kg), 1 treated
[4] = Cohort 2 (0.08 mg/kg), 1 treated
[5] = Cohort 3 (0.12 mg/kg), 1 treated
[6] = Cohort 4 (0.24 mg/kg), 7 treated
[7] = Cohort 5 (0.32 mg/kg), 6 treated
[8] = Cohort 6 (0.40 mg/kg), 4 treated

## Cc1ncsc1-c1ccc([C@H](C)NC(=O)[C@@H]2C[C@@H](O)CN2C(=O)[C@@H](NC(=O)CCCCCC(=O)N2CCN(CC[C@H](CSc3ccccc3)Nc3ccc(S(=O)(=O)NC(=O)c4ccc(N5CCN(CC6=C(c7ccc(Cl)cc7)CCC(C)(C)C6)CC5)cc4)cc3S(=O)(=O)C(F)(F)F)CC2)C(C)(C)C)cc1 [DT2216]
[1]; 15/20 patients
  patients who discontinued treatment because of objective disease progression: 75%
[1]; 20 patients, 0.04 to 0.4 mg/kg IV BIW
  stable disease (best response per RECIST v1.1), share of patients: 20%
[1]; [3]
  Treatment discontinuation: Clinical progression of neoplastic disease (subjects): 1
  Treatment discontinuation: Objective progression of neoplastic disease (subjects): 0
[1]; [4]
  Treatment discontinuation: Clinical progression of neoplastic disease (subjects): 0
  Treatment discontinuation: Objective progression of neoplastic disease (subjects): 1
[1]; [5]
  Treatment discontinuation: Clinical progression of neoplastic disease (subjects): 0
  Treatment discontinuation: Objective progression of neoplastic disease (subjects): 1
[1]; [6]
  Treatment discontinuation: Clinical progression of neoplastic disease (subjects): 2
  Treatment discontinuation: Objective progression of neoplastic disease (subjects): 4
[1]; [7]
  Treatment discontinuation: Clinical progression of neoplastic disease (subjects): 1
  Treatment discontinuation: Objective progression of neoplastic disease (subjects): 5
[1]; [8]
  Treatment discontinuation: Clinical progression of neoplastic disease (subjects): 0
  Treatment discontinuation: Objective progression of neoplastic disease (subjects): 4
[1]; Kaplan–Meier, 95% CI 4.0 – NE
  median overall survival: 7.9 months
[1]; Total, 20 treated
  Treatment discontinuation: Clinical progression of neoplastic disease (subjects): 4
  Treatment discontinuation: Objective progression of neoplastic disease (subjects): 15
[1]; human, in vivo
  median duration of response (stable disease): 107 days
[1]; one person, non-small cell lung adenocarcinoma, 0.24 mg/kg, after C4
  target liver lesions versus baseline: decrease in size of target liver lesions
[1]; patients with different advanced solid tumors
  single-agent activity: did not demonstrate single-agent activity
[2]
  IC90: ~500 nM
